Where two headings read alike, the source gives them in different places.
What was measured:
[1] = molecular target: T1, wild type human 5HT2A receptor (Homo sapiens, UniProt P28223); assay: Competitive binding assay, [3H]LSD, WT 5HT2A; conditions: competitive binding using LSD; read-out: WT 5HT2A LSD IC50
T1 construct: expressed in transfected cells; host or cells: COS-7 cells, pCMV vector

[2] = molecular target: T2, human mutated 5HT2A receptor, AP-3 (Homo sapiens, UniProt P28223, T25N); assay: Inositol phosphate accumulation assay, AP-3; format: cell-based; conditions: for remaining activity at 10 µM: read-out: IP3 % of Control; for IC50: several concentrations, read-out: IP3 AP-3 IC50;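 on all read-outs here: transfected 293 cells prelabeled with 3H-inositol, exposed to compound 120 min at 37 °C with LiCl and pargyline, inositol trisphosphates isolated by anion exchange and counted by scintillation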
T2 construct: Inositol Phosphate Accumulation AP-3 IC50 Value (nM); other: several concentrations; IP3 % of Control; other: one concentration of 10 μM, triplicate; control without test compound
T2 sequence (P28223 whole entry T25N, looked up): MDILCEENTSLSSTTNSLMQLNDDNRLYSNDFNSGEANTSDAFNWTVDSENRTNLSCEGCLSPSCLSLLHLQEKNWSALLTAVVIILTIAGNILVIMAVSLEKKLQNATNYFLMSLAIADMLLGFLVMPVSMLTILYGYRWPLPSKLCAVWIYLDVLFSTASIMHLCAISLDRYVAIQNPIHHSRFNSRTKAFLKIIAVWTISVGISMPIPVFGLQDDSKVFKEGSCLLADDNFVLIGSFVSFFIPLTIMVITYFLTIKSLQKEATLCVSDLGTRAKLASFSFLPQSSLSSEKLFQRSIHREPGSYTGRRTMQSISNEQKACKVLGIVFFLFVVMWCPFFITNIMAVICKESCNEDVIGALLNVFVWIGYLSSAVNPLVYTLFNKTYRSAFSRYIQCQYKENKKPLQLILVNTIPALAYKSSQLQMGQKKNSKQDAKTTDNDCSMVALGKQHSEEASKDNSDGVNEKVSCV

[3] = one concentration of 10 μM, triplicate, control without test compound

T1 sequence (P28223 whole entry T25N/H452Y): as the sequence (P28223 whole entry T25N, looked up) above, with H452Y counted along it

SMILES | IC50 [1] [nM] | remaining activity at 10 µM [2, 3] [%] | remaining activity at 10 µM [2] [%] | IC50 [2] [nM] | IP3 % of Control [2, 3] [%]
Cc1c(Cl)cc(NC(=O)Nc2cccc(-c3nn(C)cc3Br)c2)cc1Cl [Compound 116138, N-(3,5-dichloro-4-methylphenyl){[3-(4-bromo-1-methylpyrazol-3-yl)phenyl]amino}carboxamide] | 122 | 23 |  |  | 
CN(C)c1ccc(NC(=O)Nc2cccc(-c3nn(C)cc3Br)c2)cc1 [Compound 116122, N-[4-(dimethylamino)phenyl]{[3-(4-bromo-1-methylpyrazol-3-yl)phenyl]amino}carboxamide] | 309 | 9 |  |  | 
Cn1cc(Br)c(-c2cccc(NC(=O)Nc3ccc(C#N)cc3)c2)n1 [Compound 116147, {[3-(4-bromo-1-methylpyrazol-3-yl)phenyl]-amino}-N-(4-cyanophenyl)carboxamide] | 2 |  | 12 |  | 
Cn1cc(Br)c(-c2cccc(NC(=O)Cc3cccc(F)c3)c2)n1 [Compound 116174, N-[3-(4-bromo-1-methylpyrazol-3-yl)phenyl]-2-(3-fluorophenyl)acetamide] | 318 |  |  | 153 | 
COc1ccc(NC(=O)Nc2cccc(-c3nn(C)cc3Br)c2)cc1 [Compound 116091, {[3-(4-bromo-1-methylpyrazol-3-yl)phenyl]-amino}-N-(4-methoxyphenyl)carboxamide] | 19 |  | 12 |  | 
Cn1cc(Br)c(-c2cccc(NC(=O)Nc3ccccc3C(N)=O)c2)n1 [Compound 116145, 2-({[3-(4-bromo-1-methylpyrazol-3-yl)phenyl]-amino}carbonylamino)benzamide] | 7470 | 31 |  |  | 
Cn1cc(Br)c(-c2cccc(NC(=O)Nc3ccc(C(F)(F)F)cc3)c2)n1 [Compound 116097, {[3-(4-bromo-1-methylpyrazol-3-yl)phenyl]-amino}-N-[4-(trifluoromethyl)phenyl]carboxamide] | 65 |  | 11 |  | 
Cn1cc(Br)c(-c2cccc(NC(=O)Nc3ccc(SC(F)(F)F)cc3)c2)n1 [Compound 116139, {[3-(4-bromo-1-methylpyrazol-3-yl)phenyl]-amino}-N-[4-(trifluoromethylthio)phenyl]carboxamide] | 56 |  | 12 |  | 
Cn1cc(Br)c(-c2cccc(NC(=O)Cc3ccccc3F)c2)n1 [Compound 116176, N-[3-(4-bromo-1-methylpyrazol-3-yl)phenyl]-2-(2-fluorophenyl)acetamide] | 662 |  |  | 129 | 
Cn1cc(Br)c(-c2cccc(NC(=O)Nc3ccccc3F)c2)n1 [Compound 116144, {[3-(4-bromo-1-methylpyrazol-3-yl)phenyl]-amino}-N-(2-fluorophenyl)carboxamide] | 37 |  | 12 |  | 
COc1ccc(CCNC(=O)Nc2cccc(-c3nn(C)cc3Br)c2)cc1 [Compound 116194, N-[3-(4-bromo-1-methylpyrazol-3-yl)phenyl][{2-(4-methoxyphenyl)ethyl}amino]carboxamide] | 61 |  |  | 32 | 
COc1cccc(CC(=O)Nc2cccc(-c3nn(C)cc3Br)c2)c1 [Compound 116175, N-[3-(4-bromo-1-methylpyrazol-3-yl)phenyl]-2-(3-methoxyphenyl)acetamide] | 625 |  |  | 108 | 
CC(C)c1ccc(NC(=O)Nc2cccc(-c3nn(C)cc3Br)c2)cc1 [Compound 116110, {[3-(4-bromo-1-methylpyrazol-3-yl)phenyl]amino}-N-[4-(methylethyl)phenyl]carboxamide] | 338 |  |  |  | 7
CN(C(=O)Nc1cccc(-c2nn(C)cc2Br)c1)c1ccc(OC(F)(F)F)cc1 [Compound 116113, [{3-(4-bromo-1-methylpyrazol-3-yl)phenyl}-amino]-N-methyl-N-[4-(trifluoromethoxy)phenyl]carboxamide] | 2 |  |  | 193 | 

— patent US7754866B2 (Arena Pharmaceuticals, Inc., priority 1997, dated 2010)
